Common to all, as to assay type: in vivo, Vietnamese minipigs
The subject of one test is myeloperoxidase. Nature of the test: Small intestinal myeloperoxidase activity in porcine cardiac tamponade model. Particulars: end of the experiment; AcPepA 4 mg/kg iv; FIG. 5A. The method, then: (§1) The animals were randomly allocated to either of three experimental groups. Group 1 (n=6) served as the sham^-operated group to which the same time-frame and sampling conditions as in the groups of 2 (n=7) and 3 (n=6) were applied, but without causing cardiac tamponade. Left lateral thoracotomy was performed in all groups. In the groups which developed cardiac tamponade, namely, in the group not treated with AcPepA (herein also referred to as “non-treated group”) and the group treated with AcPepA (herein also referred to as “treated group”), a cannula was fixed into the pericardial cavity. […] After elapse of this period, the fluid was removed from the pericardial cavity and the animals were monitored for 180 minutes post-tamponade. […]
The activity of myeloperoxidase, a marker of activation of polymorphonuclear leukocyte, was measured by using ileal biopsy samples according to the method of Kuebler et al. (for review see Kuebler W M, Abels C, Schuerer L, et al: Measurement of neutrophil content in brain and lung tissue by a modified myeloperoxidase assay. Int J Microcirc Clin Exp 1996; 16:89-97). […] Levels of myeloperoxidase were calculated via a calibration curve prepared with an myeloperoxidase standard (Sigma-Aldrich GmbH, Germany). […] Myeloperoxidase activities of such samples were measured as described above, and such data were referred to the protein content.

Test [1] deals with acute porcine model of experimental cardiac tamponade. Kind of test: Macro-hemodynamic measurements in acute porcine model of experimental cardiac tamponade. Particulars: for central venous pressure: FIG. 2A; for global end-diastolic volume index: FIG. 2B; for superior mesenteric artery blood flow: FIG. 3A; for heart rate: FIG. 2C. The method, then:
Inbred Vietnamese minipigs of both sexes (n=19, weighing 24±3 kg) were fasted for twelve (12) hours preoperatively, but received water ad libitum. Anesthesia was induced with a mixture of ketamine (20 mg/kg) and xylazine (2 mg/kg) im and maintained with a continuous infusion of propofol (50 μL/min/kg iv; 6 mg/kg/hr). After endotracheal intubation, the animals were mechanically ventilated with the tidal volume set at 9±2 mL/kg, and the respiratory rate was adjusted to maintain the end-tidal pressure of CO2 and PaCO2 in the range of 35 to 45 mmHg. Positive end-expiratory pressure was not applied during the period of cardiac tamponade.
The animals were placed in a supine position on an electric heating pad for maintenance of body temperature between 36 and 37° C., and received an infusion of Ringer's lactate at a rate of 10 mL/kg/h during the experiment. The right femoral artery and jugular vein were cannulated for the measurement of mean arterial pressure (“MAP”) and cardiac output (“CO”) by thermodilution (PICCO catheters, PULSION Medical Systems, Germany), and for fluid or drug administration, respectively. […] An ultrasonic flow probe (Transonic Systems Inc., Ithaca, N.Y., U.S.A.) was placed around the exposed SMA to measure the mesenteric blood flow. In all protocols, the animals were monitored continuously, arterial blood gases were regularly checked (Cobas b121, Roche, Austria), and a period of 30 minutes was allowed for recovery from surgery.
The animals were randomly allocated to either of three experimental groups. Group 1 (n=6) served as the sham^-operated group to which the same time-frame and sampling conditions as in the groups of 2 (n=7) and 3 (n=6) were applied, but without causing cardiac tamponade. Left lateral thoracotomy was performed in all groups. In the groups which developed cardiac tamponade, namely, in the group not treated with AcPepA (herein also referred to as “non-treated group”) and the group treated with AcPepA (herein also referred to as “treated group”), a cannula was fixed into the pericardial cavity. A pericardial tamponade was induced for 60 minutes by the intrapericardial administration of colloid solution, while the mean artery pressure was kept in the interval of 40 to 45 mmHg. After elapse of this period, the fluid was removed from the pericardial cavity and the animals were monitored for 180 minutes post-tamponade. Group 3 (the treated group) was treated with AcPepA (a single administration of 4 mg/kg in 5 mL saline iv into the jugular vein in a 5-minute infusion) after 45 minutes of cardiac tamponade. The beginning of tamponade is denoting 0 minute. Vehicle (saline) administration was applied in the groups of 1 and 2 by the same protocol.
Central venous pressure (“CVP”) and blood flow signals were continuously monitored and automatically registered with a computerized data-acquisition system (SPELL Haemosys; Experimetria Ltd., Budapest, Hungary). Mean arterial pressure, cardiac output and heart rate were measured with the PICCO Plus monitoring system (PULSION Medical Systems, Germany) and the global end-diastolic volume index (“GEDI”) was calculated with the PICCO system. Incidentally, central venous pressure was measured in each animal to exclude the influence of these factors, in parallel with the standard ventilation and fluid replacement protocols

The subject of another test is big-endothelin. Nature of the test: Plasma big-endothelin in porcine cardiac tamponade model. Particulars: after cardiac tamponade; AcPepA 4 mg/kg iv; FIG. 4B. The method, then:
as §1
(§2) Plasma concentrations of protein HMGB-1 were determined with a commercially available protein HMGB-1 ELISA kit (Shino-Test Corporation, Kanagawa, Japan). Plasma levels of big-endothelin, a 38 amino acid precursor protein of endothelin-1 (ET-1), were determined with a commercially available kit (Biochemica Hungaria Kft., Budapest, Hungary). Plasma histamine concentrations were determined by commercially available enzyme-linked immunoassay (Quantikine ultrasensitive EIA kit for histamine; Biomedica Hungaria Kft, Budapest, Hungary).

Test [2] relates to mucosal microcirculation of the small intestine. Kind of test: Intravital videomicroscopy of the intestinal microcirculation in porcine cardiac tamponade model. The following applies: end of the post-tamponade phase; AcPepA 4 mg/kg iv; FIG. 3B. Here is the method: as §1
An intravital orthogonal polarization spectral imaging technique (Cytoscan A/R, Cytometrics, Philadelphia, Pa., USA) was used for noninvasive visualization of the mucosal microcirculation of the small intestine. […] A 10× objective lens was placed onto the serosal surface of the […], and microscopic images were recorded with an S-VHS video recorder 1 (Panasonic AG-TL 700, Matsushita Electric Ind. Co. Ltd, Osaka, Japan). Quantitative assessment of the microcirculatory parameters was performed off-line by frame-to-frame analysis of the videotaped images. […]

For test [3], the system named is whole blood superoxide production. Kind of test: Whole blood superoxide production in porcine cardiac tamponade model. Particulars: early stage of the post-tamponade phase; AcPepA 4 mg/kg iv; FIG. 5B. The method, then:
The animals were randomly allocated to either of three experimental groups. Group 1 (n=6) served as the sham^-operated group to which the same time-frame and sampling conditions as in the groups of 2 (n=7) and 3 (n=6) were applied, but without causing cardiac tamponade. Left lateral thoracotomy was performed in all groups. In the groups which developed cardiac tamponade, namely, in the group not treated with AcPepA (herein also referred to as “non-treated group”) and the group treated with AcPepA (herein also referred to as “treated group”), a cannula was fixed into the pericardial cavity. A pericardial tamponade was induced for 60 minutes by the intrapericardial administration of colloid solution, while the mean artery pressure was kept in the interval of 40 to 45 mmHg. After elapse of this period, the fluid was removed from the pericardial cavity and the animals were monitored for 180 minutes post-tamponade. […]
During the measurements, 10 μL whole blood was added to 1 mL Hank's solution (PAA Cell Culture Company) and the mixture was kept at 37° C. until assay. The chemiluminometric response was measured with a Lumat LB9507 luminometer (Berthold, Germany) during a 30 minute period after addition of 100 μL of lucigenin.

Another test has as its system protein HMGB-1. Kind of test: Plasma HMGB-1 in porcine cardiac tamponade model. The following applies: after cardiac tamponade; AcPepA 4 mg/kg iv; FIG. 4C. The method, then: as §1, §2
Another test relates to histamine. Kind of test: Plasma histamine in porcine cardiac tamponade model. The following applies: 15 minutes of the post-tamponade phase; AcPepA 4 mg/kg iv; FIG. 4A. Here is the method: as §1, §2
Setting [4] is: after relief of cardiac tamponade, AcPepA 4 mg/kg iv.
Setting [5] is: during the period of cardiac tamponade, treated group vs sham-operated group.

Where no end group is shown, it is not given here.

On to “AcPepA: 17 amino acid peptide (Ala Ser Gly Ala Pro Ala Pro Gly Pro Ala Gly Pro Leu Arg Pro Met Phe), N-terminal alanine acetylated; C5A antagonist (Ac-ASGAPAPGPAGPLRPMF)”, for which the “myeloperoxidase activity in small intestine tissue samples (polymorphonuclear leukocyte accumulation)” value with myeloperoxidase was “significant low values in the treated group as compared with in the non-treated group and also showed the same values as in the sham-operated group”. Also, the central venous pressure entry in test [1] (setting [4]) is “significant high values as compared with in the non-treated group and also showed the same values as in the sham-operated group”; in test [1] (setting [5]) it was “significant increase of central venous pressure”. Also, the “global end-diastolic volume index” value is “significant high values as compared with in the non-treated group and also showed the same values as in the sham-operated group” in test [1] (setting [4]); “significant decrease of the global end-diastolic volume index” in test [1] (setting [5]). Moreover, the mean arterial pressure result in test [1] (after relief of tamponade, AcPepA 4 mg/kg iv single dose after 45 minutes of tamponade, FIG. 1A) is “significantly high values as compared with in the non-treated group and also showed the same values as in the sham-operated group”. Moreover, the cardiac output result in test [1] (after relief of tamponade, AcPepA 4 mg/kg iv, FIG. 1B) was “not affected”. The “superior mesenteric artery blood flow” value in test [1] (after relief of tamponade, AcPepA 4 mg/kg iv) is “increased significantly after relief of tamponade as compared with in the sham-operated group”; in test [1] (setting [5]) it was “significant decrease in the superior mesenteric artery blood flow”. In addition, the “decline in cardiac output” value in test [1] (during 60 minutes of cardiac tamponade, treated group (AcPepA 4 mg/kg iv after 45 minutes of tamponade), vs sham-operated group, FIG. 1B) was 65%. Also, the heart rate result in test [1] (during cardiac tamponade, treated group vs sham-operated group) is “significant increase in heart rate”; in test [1] (post-tamponade period, AcPepA 4 mg/kg iv), “significant decrease in the post-tamponade period as compared with in the non-treated group”. For the same substance, the plasma big-endothelin levels result in the test with big-endothelin was “low values as compared with in the non-treated group and also showed the same values as in the sham-operated group”. Further, the “average red blood cell verocity” value in test [2] was “increased significantly from the baseline level and also as compared with in the non-treated group”. Besides, the “whole blood superoxide production” value in test [3] is “low as compared with in the non-treated group and also showed the same values as in the sham-operated group”. For the same substance, the “plasma levels of protein HMGB-1” value with protein HMGB-1 was “significant low values as compared with in the non-treated group and also showed the same values as in the sham-operated group”. Besides, the “histamine levels in blood plasma” value in the test on histamine is “decreased significantly in the treated group as compared with in the non-treated group and showed the same values as in the sham-operated group”.

Values taken from patent US20160068571A1, “THERAPEUTIC AGENT FOR CARDIAC TAMPONADE” (Research Institute for Protein Science Co., priority 2013, published 2016).
